Earlier results on one molecule are cited in patent US9468597B1, “Stabilized L-ascorbic acid skin serum” (Dr. Perry Skindustries, LLC, priority 2013, dated 2016).

SMILES strings stand for the structures.

For series [1] the following is noted: without exposure to light.
The next series concerns skin. The conditions noted are these: 18% or 10% concentration placed under a patch for 4 days.

As to `O=C1O[C@H]([C@@H](O)CO)C(O)=C1O` [vitamin C, L-ascorbic acid], the half-life entry in series [1] is on record as “about 4 day”. The skin irritation result in the series with skin is given as “Neither an 18% nor a 10% concentration irritated the skin”.
